Test system: PDC KRAS tumor spheroids with HUVEC/MSC, viability
Assay: Anticancer human tumor 349418-098-R-PDC patient-derived lung adenocarcinoma cell line growth inhibition [KRAS2]
Conditions: for IC50: curve of first compound; for viability, T/C: stronger effect = lower value
Outline: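 KRAS-mutant tumor cells were grown as spheroids with HUVEC endothelial cells and human MSCs as stroma. Targeted agents were tested alone and with KRAS pathway inhibitors. Doses started at or near clinical Cmax, or 10 microM, descending half-log.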

[1] = second compound 0.0316 µM, first compound 0.0316 µM
[2] = second compound 0.0316 µM, first compound 0.1 µM
[3] = second compound 0.0316 µM, first compound 0.316 µM
[4] = second compound 0.0316 µM, first compound 1 µM
[5] = second compound 0.0316 µM, first compound 3.16 µM
[6] = second compound 0.0316 µM, first compound 10 µM
[7] = second compound 0.1 µM, first compound 0.0316 µM
[8] = second compound 0.1 µM, first compound 0.1 µM
[9] = second compound 0.1 µM, first compound 0.316 µM
[10] = second compound 0.1 µM, first compound 1 µM
[11] = second compound 0.1 µM, first compound 3.16 µM
[12] = second compound 0.1 µM, first compound 10 µM
[13] = second compound 0.316 µM, first compound 0.0316 µM
[14] = second compound 0.316 µM, first compound 0.1 µM
[15] = second compound 0.316 µM, first compound 0.316 µM
[16] = second compound 0.316 µM, first compound 1 µM
[17] = second compound 0.316 µM, first compound 3.16 µM
[18] = second compound 0.316 µM, first compound 10 µM
[19] = second compound 1 µM, first compound 0.0316 µM
[20] = second compound 1 µM, first compound 0.1 µM
[21] = second compound 1 µM, first compound 0.316 µM
[22] = second compound 1 µM, first compound 1 µM
[23] = second compound 1 µM, first compound 3.16 µM
[24] = second compound 1 µM, first compound 10 µM
[25] = second compound 3.16 µM, first compound 0.0316 µM
[26] = second compound 3.16 µM, first compound 0.1 µM
[27] = second compound 3.16 µM, first compound 0.316 µM
[28] = second compound 3.16 µM, first compound 1 µM
[29] = second compound 3.16 µM, first compound 3.16 µM
[30] = second compound 3.16 µM, first compound 10 µM
[31] = second compound 0.0316 µM, first compound 0.000316 µM
[32] = second compound 0.0316 µM, first compound 0.001 µM
[33] = second compound 0.0316 µM, first compound 0.00316 µM
[34] = second compound 0.0316 µM, first compound 0.01 µM
[35] = second compound 0.1 µM, first compound 0.000316 µM
[36] = second compound 0.1 µM, first compound 0.001 µM
[37] = second compound 0.1 µM, first compound 0.00316 µM
[38] = second compound 0.1 µM, first compound 0.01 µM
[39] = second compound 0.316 µM, first compound 0.000316 µM
[40] = second compound 0.316 µM, first compound 0.001 µM
[41] = second compound 0.316 µM, first compound 0.00316 µM
[42] = second compound 0.316 µM, first compound 0.01 µM
[43] = second compound 1 µM, first compound 0.000316 µM
[44] = second compound 1 µM, first compound 0.001 µM
[45] = second compound 1 µM, first compound 0.00316 µM
[46] = second compound 1 µM, first compound 0.01 µM
[47] = second compound 3.16 µM, first compound 0.000316 µM
[48] = second compound 3.16 µM, first compound 0.001 µM
[49] = second compound 3.16 µM, first compound 0.00316 µM
[50] = second compound 3.16 µM, first compound 0.01 µM
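Further: spheroids exposed to compounds for seven days before readout.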

| SMILES | IC50 (second compound 0.0316 µM) [nM] | IC50 (second compound 0.1 µM) [nM] | IC50 (second compound 0.316 µM) [nM] | IC50 (second compound 1 µM) [nM] | IC50 (second compound 3.16 µM) [nM] | viability, T/C [1] [%] | viability, T/C [2] [%] | viability, T/C [3] [%] | viability, T/C [4] [%] | viability, T/C [7] [%] | viability, T/C [8] [%] | viability, T/C [9] [%] | viability, T/C [10] [%] | viability, T/C [13] [%] | viability, T/C [14] [%] | viability, T/C [15] [%] | viability, T/C [19] [%] | viability, T/C [20] [%] | viability, T/C [25] [%] | viability, T/C [26] [%] | other results |
| --- | --- | --- | --- | --- | --- | --- | --- | --- | --- | --- | --- | --- | --- | --- | --- | --- | --- | --- | --- | --- | --- |
| CC(C)NCC(C(=O)N1CCN(c2ncnc3c2C(C)CC3O)CC1)c1ccc(Cl)cc1 (stereo not given) + C=CC(=O)N1CCN(c2nc(OCC3CCCN3C)nc3c2CCN(c2cccc4cccc(C)c24)C3)CC1CC#N | 313 | 254 | 289 | 224 | < 31.6 | 95.7 | 69.4 | 52.3 | 30.7 | 90.8 | 76.8 | 42.5 | 20.9 | 87.7 | 77.9 | 44.7 | 79.9 | 66.1 | 0.14 | 0.14 | viability, T/C [5]: 16.9%; viability, T/C [6]: 6.91%; viability, T/C [11]: 15.2%; viability, T/C [12]: 7.07%; viability, T/C [16]: 24.6%; viability, T/C [17]: 15.7%; viability, T/C [18]: 5.1%; viability, T/C [21]: 43.7%; viability, T/C [22]: 19%; viability, T/C [23]: 8.97%; viability, T/C [24]: 4.67%; viability, T/C [27]: 0.1%; viability, T/C [28]: 0.23%; viability, T/C [29]: 0.21%; viability, T/C [30]: 0.13% |
| CC(C)n1nc(-c2ccc3oc(N)nc3c2)c2c(N)ncnc21 + C=CC(=O)N1CCN(c2nc(OCC3CCCN3C)nc3c2CCN(c2cccc4cccc(C)c24)C3)CC1CC#N | 1.04 | 0.76 | 0.891 | 0.673 | < 0.316 | 8.26 | 8.57 | – | – | 7.73 | 7.41 | – | – | 7.31 | 7.9 | – | 6.31 | 6.74 | 0.22 | 0.17 | viability, T/C [31]: 91.5%; viability, T/C [32]: 51.2%; viability, T/C [33]: 14.9%; viability, T/C [34]: 9.06%; viability, T/C [35]: 95.8%; viability, T/C [36]: 35.6%; viability, T/C [37]: 13.9%; viability, T/C [38]: 8.16%; viability, T/C [39]: 92.3%; viability, T/C [40]: 45.2%; viability, T/C [41]: 18%; viability, T/C [42]: 9.14%; viability, T/C [43]: 71.8%; viability, T/C [44]: 38.3%; viability, T/C [45]: 17.3%; viability, T/C [46]: 7.45%; viability, T/C [47]: 1%; viability, T/C [48]: 0.25%; viability, T/C [49]: 1.1%; viability, T/C [50]: 0.13% |
| CC1(C)CCC(CN2CCN(c3ccc(C(=O)NS(=O)(=O)c4ccc(NCC5CCOCC5)c([N+](=O)[O-])c4)c(Oc4cnc5[nH]ccc5c4)c3)CC2)=C(c2ccc(Cl)cc2)C1 + C=CC(=O)N1CCN(c2nc(OCC3CCCN3C)nc3c2CCN(c2cccc4cccc(C)c24)C3)CC1CC#N | 1680 | 1340 | 1510 | 1180 | < 31.6 | 97.5 | 100 | 89.4 | 80 | 96.2 | 94.8 | 76.5 | 66.2 | 92.6 | 87.5 | 77.1 | 76.8 | 75 | 0.15 | 0.15 | viability, T/C [5]: 13.8%; viability, T/C [6]: 4.29%; viability, T/C [11]: 13.6%; viability, T/C [12]: 4.13%; viability, T/C [16]: 72.1%; viability, T/C [17]: 10.9%; viability, T/C [18]: 3.73%; viability, T/C [21]: 68.2%; viability, T/C [22]: 57.7%; viability, T/C [23]: 4.26%; viability, T/C [24]: 1.75%; viability, T/C [27]: 0.14%; viability, T/C [28]: 0.2%; viability, T/C [29]: 0.09%; viability, T/C [30]: 0.11% |
| CCN1CCN(Cc2ccc(Nc3ncc(F)c(-c4cc(F)c5nc(C)n(C(C)C)c5c4)n3)nc2)CC1 + C=CC(=O)N1CCN(c2nc(OCC3CCCN3C)nc3c2CCN(c2cccc4cccc(C)c24)C3)CC1CC#N | 4.51 | 6.76 | 6 | < 3.16 | < 3.16 | 19.3 | 16.6 | 14.1 | 4.49 | 20.2 | 15.4 | 10.2 | 3.97 | 15.8 | 19.1 | 10.4 | 15.2 | 12.4 | 0.07 | 0.08 | viability, T/C [33]: 56%; viability, T/C [34]: 37.7%; viability, T/C [37]: 80.7%; viability, T/C [38]: 31.3%; viability, T/C [41]: 64.8%; viability, T/C [42]: 40.2%; viability, T/C [16]: 2.4%; viability, T/C [45]: 46.1%; viability, T/C [46]: 24.9%; viability, T/C [21]: 8.99%; viability, T/C [22]: 0.45%; viability, T/C [49]: 0.15%; viability, T/C [50]: 0.09%; viability, T/C [27]: 0.08%; viability, T/C [28]: 0.19% |
| COc1cc2nccc(Oc3ccc(NC(=O)C4(C(=O)Nc5ccc(F)cc5)CC4)cc3)c2cc1OC + C=CC(=O)N1CCN(c2nc(OCC3CCCN3C)nc3c2CCN(c2cccc4cccc(C)c24)C3)CC1CC#N | 1560 | 1570 | 1530 | 588 | < 31.6 | 96.3 | 96.9 | 92.2 | 72.5 | 88.5 | 95.8 | 93.7 | 74.6 | 93.2 | 88.6 | 85.3 | 73.5 | 79.7 | 0.14 | 0.28 | viability, T/C [5]: 10.1%; viability, T/C [6]: 19.4%; viability, T/C [11]: 7.5%; viability, T/C [12]: 15.7%; viability, T/C [16]: 72.8%; viability, T/C [17]: 7.47%; viability, T/C [18]: 15.3%; viability, T/C [21]: 68.4%; viability, T/C [22]: 33.7%; viability, T/C [23]: 1.78%; viability, T/C [24]: 0.85%; viability, T/C [27]: 0.29%; viability, T/C [28]: 0.22%; viability, T/C [29]: 0.19%; viability, T/C [30]: 0.14% |
| Cn1ncnc1[C@H]1c2n[nH]c(=O)c3cc(F)cc(c23)N[C@@H]1c1ccc(F)cc1 + C=CC(=O)N1CCN(c2nc(OCC3CCCN3C)nc3c2CCN(c2cccc4cccc(C)c24)C3)CC1CC#N | > 100 | > 100 | > 100 | > 100 | < 0.316 | 86.8 | 74.9 | – | – | 74.3 | 75.9 | – | – | 79.2 | 68 | – | 70.2 | 58.8 | 0.72 | 0.18 | viability, T/C [31]: 98.3%; viability, T/C [32]: 93.3%; viability, T/C [33]: 84.3%; viability, T/C [34]: 85.5%; viability, T/C [35]: 93.7%; viability, T/C [36]: 96.9%; viability, T/C [37]: 83.6%; viability, T/C [38]: 80.3%; viability, T/C [39]: 94.8%; viability, T/C [40]: 97.9%; viability, T/C [41]: 85.7%; viability, T/C [42]: 85.7%; viability, T/C [43]: 84.4%; viability, T/C [44]: 82.8%; viability, T/C [45]: 68.6%; viability, T/C [46]: 75.2%; viability, T/C [47]: 0.16%; viability, T/C [48]: 0.14%; viability, T/C [49]: 2.18%; viability, T/C [50]: 1.01% |

From PubChem BioAssay AID1963866 (Molecular Pharmacology Branch, DTP, NCI, 2024)
